Laboratory results from paper PMC6316846, “Pretargeted Imaging with Gallium-68—Improving the Binding Capability by Increasing the Number of Tetrazine Motifs” (Pharmaceuticals, 2018).
Read-outs that look alike come from different tables or passages of the source.

Columns and labels:
[1] = Serum protein binding, Sephadex G-50 size exclusion; type: in vitro ADME; settings: ^68Ga-labelled compound, human serum, 37 °C, mean ± SD (n = 3)
Experimental: Serum protein binding was determined using Sephadex G-50 (GE Healthcare Vienna, Austria) size exclusion chromatography. Aliquots (50 µL, n = 3) of the radioligand solution (~10 µM) were incubated in 450 µL freshly prepared human serum or 450 µL PBS (controls) and were kept at 37 °C. After 1, 2, and 4 h aliquots (25 µL) were directly transferred to the column (MicroSpin G-50, GE Healthcare) and after centrifugation (2 min, 2000 rcf) the column containing the free conjugate and the eluate containing the protein-bound conjugate were measured in the gamma counter. The percent of activity in both fractions was calculated thereafter.

immobilized RTX-TCO = assay: Competitive binding assay on immobilized RTX-TCO; settings: non-labelled conjugate as competitor, 30 min RT
Experimental: Binding on immobilized RTX-TCO was conducted using high protein-binding capacity Nunc MaxiSorp™ 96-well plates (Thermo Fisher Scientific, Vienna, Austria). Coating was performed by adding 20 µg of antibody (RTX or RTX-TCO) dissolved in 100 µL coating buffer (0.1 M NaHCO3, pH 8.5) to each well and after 2 h incubation at RT the plate was left at 4 °C overnight both under the exclusion of light. After removal of the coating solution 200 µL of blocking buffer (1% BSA in PBS) was added, left for 1 h at room temperature and subsequently each well was washed twice with 200 µL binding buffer (0.1% BSA in PBS). Hereafter, the radioligand was mixed with increasing concentrations of the competitor (=non-labelled conjugate), diluted in binding buffer and 100 µL of the mixture was added to each well. After 30 min at RT the supernatant was removed, each well was washed three times with 150 µL binding buffer and the coating film was finally detached with 2 × 150 µL of hot (80 °C) 2 N sodium hydroxide (NaOH). The NaOH fraction was taken for gamma counter measurement to determine the percentage of binding in contrast to the standard followed by non-liner curve fitting using Origin 6.1 software (Origin Inc., Northampton, MA, USA) to calculate the apparent half maximum inhibitory concentration of the competitor (n = 3, 4 replicates).

[2] = Distribution coefficient (logD), octanol/PBS; type: physicochemical; settings: mean ± SD (n = 3); for LogD (pH 7.4): ^68Ga-labelled compound
Experimental: To determine the distribution of the ^68Ga-labelled conjugates between an organic (octanol) and aqueous (PBS) layer, aliquots (50 µL) of the tracers (~5 µM) were diluted in 1 mL of octanol/PBS (1:1, v/v). The mixture was vortexed at 1400 rpm (MS 3 basic vortexer, IKA, Staufen, Germany) for 15 min at RT followed by centrifugation for 2 min at 4500 rpm. Subsequently, aliquots (50 µL) of both layers were collected and measured in the gamma counter (Wizard2 3”, Perkin Elmer, Waltham, MA, USA) followed by logD calculation (n = 3, six replicates).

[3] = system: CD20-expressing Raji cells; assay: FACS analysis of antibody binding to Raji cells; type: cell-based; settings: antibody at 20 µM, APC-labelled anti-human IgG Fc secondary antibody
Experimental: The humanoid lymphoblast-like CD20-expressing B-lymphocyte cells (Raji cells) were purchased from American Type Culture Collection (ATCC, Manassas, VA, USA). Flow cytometric analysis of CD20 expression was evaluated on (Raji cells) adjusted to 5 × 10^5 cells/sample in DMEM (including 10% FCS, 1% Pen/Strep). Cells were incubated with FC-Block (containing CD16/CD32 (1:200), e-Bioscience, Thermo Fisher Scientific, Vienna, Austria) for 15 min at 4 °C in order to avoid signals from non-specific binding. The following antibodies were used: RTX-TCO and RTX, both at 20 µM (f. c.). As secondary antibody a APC-labelled anti-human IgG Fc (clone: HP6017; BioLedgend, San Diego, CA, USA) at a dilution of 1:100 was used. Antibodies were incubated for at least 15 min at 4 °C. FACS analysis was performed on BD LSRFortessa™ (Cell Analyzer, BD Bioscience, San Jose, CA, USA). As internal control samples unstained or stained with either primary or secondary antibodies were analyzed. FACS-data was analyzed by FlowJo v10 software.

[4] = radioligand [^68Ga]Ga-Tz-dimer, read-out: Competitor concentration reducing binding of [^68Ga]Ga-Tz-dimer by 50%
[5] = radioligand [^68Ga]Ga-Tz-monomer, read-out: Competitor concentration reducing binding of [^68Ga]Ga-Tz-monomer by 50%
[6] = radioligand [^68Ga]Ga-Tz-trimer, read-out: Competitor concentration reducing binding of [^68Ga]Ga-Tz-trimer by 50%

| Molecule | fraction unbound at 1 h ([1]; 1 h) | fraction unbound at 2 h ([1]; 2 h) | fraction unbound at 4 h ([1]; 4 h) | IC50 (immobilized RTX-TCO; [4]) | IC50 (immobilized RTX-TCO; [5]) | IC50 (immobilized RTX-TCO; [6]) | logD ([2]; octanol/PBS (1:1, v/v), pH 7.4, ^68Ga-labelled compound) | Target specificity by FACS [3] | Protein Binding (%) 1 h ([1]; 1 h) | Protein Binding (%) 2 h ([1]; 2 h) | Protein Binding (%) 4 h ([1]; 4 h) | LogD (pH 7.4) [2] |
| --- | --- | --- | --- | --- | --- | --- | --- | --- | --- | --- | --- | --- |
| CC(=O)NC1CCCN(O)C(=O)/C=C(/C)CCOC(=O)C(NC(=O)CCOCCOCCOCCOCCOCCC(=O)NCc2ccc(-c3nncnn3)cc2)CCCN(O)C(=O)/C=C(/C)CCOC(=O)C(NC(C)=O)CCCN(O)C(=O)/C=C(/C)CCOC1=O (centres unmarked) [Tz-monomer, DAFC-PEG5-Tz] | 0.382 | 0.362 | 0.36 | 865 ± 263 nM | 486 ± 52 nM | 2990 ± 1660 nM | -1.64 ± 0.02 |  |  |  |  |  |
| TCO-modified RTX: anti-CD20 monoclonal antibody rituximab modified with trans-cyclooctene (TCO-NHS ester) |  |  |  |  |  |  |  | high target specificity |  |  |  |  |
| CC(=O)NC1CCCN(O)C(=O)/C=C(/C)CCOC(=O)C(NC(=O)CCOCCOCCOCCOCCOCCC(=O)NCc2ccc(-c3nncnn3)cc2)CCCN(O)C(=O)/C=C(/C)CCOC(=O)C(NC(=O)CCOCCOCCOCCOCCOCCC(=O)NCc2ccc(-c3nncnn3)cc2)CCCN(O)C(=O)/C=C(/C)CCOC1=O (centres unmarked) [Tz-dimer, MAFC-(PEG5-Tz)2] |  |  |  | 95 ± 25 nM | 112 ± 6 nM | 258 ± 60 nM |  |  | 67.0 ± 2.4% | 65.9 ± 1.3% | 68.4 ± 0.3% | −1.35 ± 0.01 |
| C/C1=C/C(=O)N(O)CCCC(NC(=O)CCOCCOCCOCCOCCOCCC(=O)NCc2ccc(-c3nncnn3)cc2)C(=O)OCC/C(C)=C\C(=O)N(O)CCCC(NC(=O)CCOCCOCCOCCOCCOCCC(=O)NCc2ccc(-c3nncnn3)cc2)C(=O)OCC/C(C)=C\C(=O)N(O)CCCC(NC(=O)CCOCCOCCOCCOCCOCCC(=O)NCc2ccc(-c3nncnn3)cc2)C(=O)OCC1 (centres unmarked) [Tz-trimer, FSC-(PEG5-Tz)3] |  |  |  | 92 ± 15 nM | 100 ± 10 nM | 147 ± 49 nM |  |  | 70.5 ± 0.7% | 69.5 ± 0.4% | 67.8 ± 0.4% | −1.00 ± 0.06 |
| rituximab [non-modified RTX, reference compound] |  |  |  |  |  |  |  | high target specificity |  |  |  |  |
